Legend:
[1] = Solvency of the active substance in monomer (visual inspection); type: physicochemical; set-up: key: Excellent: The active substance was not found to have been precipitated in the solution of active substance both immediately after the preparation and after the preservation for 7 days.; Good: The active substance was found to have been precipitated in the solution of active substance immediately after the preparation, but the active substance was not found to have been precipitated in the solution of active substance after the preservation for 7 days.; Poor: The active substance was found to have been precipitated in the solution of active substance both immediately after the preparation and after the preservation for 7 days; settings: 3 parts active substance per 100 parts monomer, 25° C., 7 days
[2] = Residual rate of the active substance in monomer solution (HPLC); type: physicochemical; settings: for Residual Rate of active substance, Immediately after Preparation: 3 parts per 100 parts monomer; for Residual Rate of active substance, after 7 Days: preserved at 25° C. for 7 days
[3] = monomer: 2-Ethylhexyl Methacrylate

Compound | Solvency of active substance ([1]; monomer: 1-Vinyl-2-Pyrrolidone) | Solvency of active substance ([1]; monomer: 2-Ethylhexyl Acrylate) | Solvency of active substance [1, 3] | Solvency of active substance ([1]; monomer: Acrylic Acid) | Solvency of active substance ([1]; monomer: Butyl Acrylate) | Solvency of active substance ([1]; monomer: Butyl Methacrylate) | Solvency of active substance ([1]; monomer: Dodecyl Methacrylate) | Solvency of active substance ([1]; monomer: Ethyl Acrylate) | Residual Rate of active substance, Immediately after Preparation ([2]; monomer: 1-Vinyl-2-Pyrrolidone) [% by weight] | Residual Rate of active substance, after 7 Days ([2]; monomer: 1-Vinyl-2-Pyrrolidone) [% by weight] | Residual Rate of active substance, Immediately after Preparation ([2]; monomer: 2-Ethylhexyl Acrylate) [% by weight] | Residual Rate of active substance, after 7 Days ([2]; monomer: 2-Ethylhexyl Acrylate) [% by weight] | Residual Rate of active substance, Immediately after Preparation [2, 3] [% by weight] | Residual Rate of active substance, after 7 Days [2, 3] [% by weight] | Residual Rate of active substance, Immediately after Preparation ([2]; monomer: Acrylic Acid) [% by weight] | Residual Rate of active substance, after 7 Days ([2]; monomer: Acrylic Acid) [% by weight] | Residual Rate of active substance, Immediately after Preparation ([2]; monomer: Butyl Acrylate) [% by weight] | Residual Rate of active substance, after 7 Days ([2]; monomer: Butyl Acrylate) [% by weight] | Residual Rate of active substance, Immediately after Preparation ([2]; monomer: Butyl Methacrylate) [% by weight] | Residual Rate of active substance, after 7 Days ([2]; monomer: Butyl Methacrylate) [% by weight] | also measured
COc1ccc2c(c1)c(CC(=O)O)c(C)n2C(=O)c1ccc(Cl)cc1 [IMT, indomethacin] | Excellent | Poor | Poor | Excellent | Poor | Poor | Poor | Poor | 100 | 100 | 100 | 100 | 100 | 100 | 100 | 100 | 100 | 100 | 100 | 99 | Residual Rate of active substance, Immediately after Preparation ([2]; monomer: Dodecyl Methacrylate): 100 % by weight; Residual Rate of active substance, after 7 Days ([2]; monomer: Dodecyl Methacrylate): 100 % by weight; Residual Rate of active substance, Immediately after Preparation ([2]; monomer: Ethyl Acrylate): 100 % by weight; Residual Rate of active substance, after 7 Days ([2]; monomer: Ethyl Acrylate): 99 % by weight
O=[N+]([O-])O[C@H]1CO[C@H]2[C@@H]1OC[C@H]2O[N+](=O)[O-] [ISDN, isosorbide dinitrate] | Excellent | Excellent | Excellent | Excellent | Excellent | Excellent | Excellent | Excellent | 100 | 100 | 100 | 100 | 100 | 99 | 100 | 100 | 100 | 100 | 100 | 100 | Residual Rate of active substance, Immediately after Preparation ([2]; monomer: Dodecyl Methacrylate): 100 % by weight; Residual Rate of active substance, after 7 Days ([2]; monomer: Dodecyl Methacrylate): 100 % by weight; Residual Rate of active substance, Immediately after Preparation ([2]; monomer: Ethyl Acrylate): 100 % by weight; Residual Rate of active substance, after 7 Days ([2]; monomer: Ethyl Acrylate): 100 % by weight
CC(C)(C)NCC(O)c1ccccc1Cl (stereo not drawn) [TB, tulobuterol] | Excellent | Excellent | Excellent | Excellent | Excellent | Excellent | Good | Excellent | 100 | 100 | 100 | 88 | 100 | 100 | 100 | 96 | 100 | 81 | 100 | 100 | Residual Rate of active substance, Immediately after Preparation ([2]; monomer: Dodecyl Methacrylate): 100 % by weight; Residual Rate of active substance, after 7 Days ([2]; monomer: Dodecyl Methacrylate): 100 % by weight; Residual Rate of active substance, Immediately after Preparation ([2]; monomer: Ethyl Acrylate): 100 % by weight; Residual Rate of active substance, after 7 Days ([2]; monomer: Ethyl Acrylate): 70 % by weight
